System: NanoLuc-PEST expressing L. mexicana axenic amastigotes
Assay: microbe, parasite or virus in culture
Type: cell-based
Conditions: 72 hours, relative to DMSO only control, n = 4; for viability at 2 µM / viability at 10 µM: Leishmania mexicana, read-out: Relative Bioluminescence (%)

Compound	Relative Bioluminescence (%) (2 µM compound)	Relative Bioluminescence (%) (10 µM compound)	viability at 2 µM (2 µM compound) [%]	viability at 10 µM (10 µM compound) [%]
COc1cccc2c(C)nc(N=C(N)N)nc12 [MMV000907]	95.69	78.62	–	–
O=C(NC1CC1)c1ccc(N2CCOc3ccc(Cl)cc32)s1 [MMV020537]	116.22	146.04	–	–
NCC[C@H](O)C(=O)N[C@@H]1C[C@H](N)[C@@H](O[C@H]2O[C@H](CN)[C@@H](O)[C@H](O)[C@H]2O)[C@H](O)[C@H]1O[C@H]1O[C@H](CO)[C@@H](O)[C@H](N)[C@H]1O [MMV687796, Amikacin, reference compound]	–	–	79.3	58.2
CN1CCN(c2nccc3[nH]c(-c4cccc(F)c4)cc23)CC1 [MMV393144]	92.24	81.97	–	–
O=C(NCc1ccoc1)N1CCN(Cc2ccc3c(c2)OCO3)CC1 [MMV688553]	90.94	98.31	–	–
Cc1ccc2nc(Cl)c(CNCc3cccs3)cc2c1 [MMV676439]	83.45	95.86	–	–
CC(=O)NC[C@H]1CN(c2ccc(N3CCSCC3)c(F)c2)C(=O)O1 [MMV688756, Sutezolid, reference compound]	–	–	88.9	64.5
c1coc(CNc2nc(N3CCCCC3)nc3ccccc23)c1 [MMV676401]	91.23	75.18	–	–
COc1ccc(N(CCc2cccc(C)n2)C(=O)C2CCCCC2)cc1 [MMV675996]	63.13	25.83	–	–
CC(=O)NCC1CN(c2ccc(-c3ccc(CO)cc3)c(F)c2)C(=O)O1 (stereo not drawn) [MMV688508]	98.16	65.29	–	–
Cc1[nH]c2ccccc2c1C(c1cccs1)N1CCN(C)CC1 (stereo not drawn) [MMV688768]	75.96	-1.33	–	–
O=C(c1ccc(F)cc1)N(CCNc1ccccc1)c1ccccc1 [MMV676204]	116.49	99.37	–	–
Nc1ncc(-c2cn[nH]c2)cc1-c1nc2cc(Cl)cnc2[nH]1 [MMV023370]	62.35	54.43	–	–
O=C(OCc1ccccc1)N1CCC(c2cc(-c3ccncc3)c(-c3ccc(F)cc3)[nH]2)CC1 [MMV688509]	70.28	27.84	–	–
COc1cccc(OC)c1C(=O)Nc1ccc(Cl)c(-c2nc3ccccc3s2)c1 [MMV676472]	106.46	93.04	–	–
CO[C@@H]1CN(c2ccc(C#CC3(O)CN4CCC3CC4)c(Cc3ccccc3)n2)C[C@H]1O (stereo partly drawn) [MMV688415]	63.04	31.88	–	–
O=C(NC1CCCCC1)N1CCN(Cc2ccc3c(c2)OCO3)CC1 [MMV676444]	89.21	81.76	–	–
CCOc1ccc2cc(-c3nn(C(C)(C)C)c(N)c3C(N)=O)cnc2c1 [MMV688853]	34.19	42.96	–	–
COc1cccc(-c2cc3c(Nc4cccnc4)nccc3[nH]2)c1 [MMV392832]	70.60	51.50	–	–
CC1CC1C(=O)NC1CCN(CC2(c3ccccc3)CCCCC2)CC1 (stereo not drawn) [MMV020120]	92.92	99.97	–	–
O=C(Nc1ccc(F)c(-c2nc3ncc(-c4ccccc4)cc3[nH]2)c1)N1CCCC1 [MMV688372]	17.89	6.87	–	–
COc1ccc(C2CC(c3cccs3)=NN2C(=O)c2ccco2)cc1OC (stereo not drawn) [MMV019234]	106.08	39.61	–	–
O=C1Nc2ccc(Br)cc2C12NCCc1c2[nH]c2ccccc12 (stereo not drawn) [MMV006239]	107.64	108.03	–	–
Cc1cc(C(=O)Nc2cnn(Cc3ccc(Cl)cc3Cl)c2)no1 [MMV009054]	106.08	100.62	–	–
